Data: PubChem BioAssay AID248 (DTP/NCI, 2004)
Values joined by “and” are separate entries in the source; they are usually repeats but may differ in a detail not shown here. Identical values can stand only once. Toxic doses and inconclusive results are not listed. Rule as the data show it: active = T/C of 150% or more; inactive = T/C below 125%.

Tested on: L1210 leukemia ip in BDF1 mice, survival T/C
Test: NCI In Vivo Anticancer Drug Screen. Data for tumor model L1210 Leukemia (intraperitoneal) in B6D2F1 (BDF1) mice
Settings: endpoint: mean survival time, higher = longer survival
Summary of the method: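 Read-out is survival time, reported as the treated-group measurement over the vehicle-control measurement.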

[1] = dose: 100.0 mg/kg/injection, schedule: Q04DX003 (ip), vehicle: Klucel (hydroxypropylcellulose) (HPC)
[2] = dose: 400.0 mg/kg/injection, schedule: Q04DX003 (ip), vehicle: Klucel (hydroxypropylcellulose) (HPC)
[3] = dose: 100.0 mg/kg/injection, schedule: Q04DX003 (ip), vehicle: saline with Tween-80
[4] = dose: 200.0 mg/kg/injection, schedule: Q04DX003 (ip), vehicle: saline with Tween-80
[5] = dose: 400.0 mg/kg/injection, schedule: Q04DX003 (ip), vehicle: saline with Tween-80
[6] = dose: 100.0 mg/kg/injection, schedule: Q01DX001 (ip), vehicle: carboxymethylcellulose (CMC)
[7] = dose: 200.0 mg/kg/injection, schedule: Q01DX001 (ip), vehicle: carboxymethylcellulose (CMC)
[8] = dose: 400.0 mg/kg/injection, schedule: Q01DX001 (ip), vehicle: carboxymethylcellulose (CMC)
[9] = dose: 100.0 mg/kg/injection, schedule: Q01DX001 (ip), vehicle: saline
[10] = dose: 200.0 mg/kg/injection, schedule: Q01DX001 (ip), vehicle: saline
[11] = dose: 25.0 mg/kg/injection, schedule: Q01DX009 (ip), vehicle: saline with Tween-80

Measured: T/C

NC(=O)c1cc([N+](=O)[O-])ccc1N1CC[N+](CCCl)=N1
inactive: dose: 100.0 mg/kg/injection, schedule: Q01DX001 (ip), vehicle: saline with Tween-80 100 % of control | dose: 200.0 mg/kg/injection, schedule: Q01DX001 (ip), vehicle: saline with Tween-80 91 % of control | dose: 400.0 mg/kg/injection, schedule: Q01DX001 (ip), vehicle: saline with Tween-80 90 % of control

CC(=O)N(C(=O)c1ccccc1)c1ccc(NS(=O)(=O)c2ccc(C)cc2)cc1
inactive: dose: 100.0 mg/kg/injection, schedule: Q01DX001 (ip), vehicle: Klucel (hydroxypropylcellulose) (HPC) 91 % of control | [1] 94 % of control | dose: 200.0 mg/kg/injection, schedule: Q01DX001 (ip), vehicle: Klucel (hydroxypropylcellulose) (HPC) 100 % of control | dose: 400.0 mg/kg/injection, schedule: Q01DX001 (ip), vehicle: Klucel (hydroxypropylcellulose) (HPC) 100 % of control | [2] 90 % of control

CC(C)(C)CC(C)(C)c1ccc(OCCOc2ccccc2NC(=O)c2ccc3ccccc3c2O)cc1
inactive: [3] 98 % of control | [4] 103 % of control | [5] 86 % of control

CCOC(=O)C1CSC(C)(C(=O)OCC)N1 (stereo not drawn)
inactive: [6] 100 % of control | [7] 96 % of control | [8] 105 % of control

CS(=O)(=O)Oc1nn2c(OS(C)(=O)=O)nnc2s1
inactive: dose: 5.0 mg/kg/injection, schedule: Q01DX001 (ip), vehicle: saline 104 % of control | dose: 8.8 mg/kg/injection, schedule: Q01DX001 (ip), vehicle: saline 101 % of control and 90 % of control | dose: 10.0 mg/kg/injection, schedule: Q01DX001 (ip), vehicle: saline 109 % of control | dose: 13.3 mg/kg/injection, schedule: Q01DX001 (ip), vehicle: saline 98 % of control and 110 % of control | dose: 20.0 mg/kg/injection, schedule: Q01DX001 (ip), vehicle: saline 98 % of control and 104 % of control | dose: 30.0 mg/kg/injection, schedule: Q01DX001 (ip), vehicle: saline 104 % of control

CC[N+](C)(CC)/N=C(\C)c1ccccc1
inactive: [3] 105 % of control

COC(=O)c1ccc(C)c(-n2c(-c3ccccc3)nnc2-c2ccccc2)c1
inactive: dose: 50.0 mg/kg/injection, schedule: Q01DX009 (ip), vehicle: Klucel (hydroxypropylcellulose) (HPC) 102 % of control | dose: 100.0 mg/kg/injection, schedule: Q01DX009 (ip), vehicle: Klucel (hydroxypropylcellulose) (HPC) 93 % of control | [1] 95 % of control | dose: 200.0 mg/kg/injection, schedule: Q01DX009 (ip), vehicle: Klucel (hydroxypropylcellulose) (HPC) 95 % of control | dose: 200.0 mg/kg/injection, schedule: Q04DX003 (ip), vehicle: Klucel (hydroxypropylcellulose) (HPC) 92 % of control | [2] 97 % of control

NCCCCC(N)C(=O)NCCCCCCNCCCCCCNC(=O)C(N)CCCCN (stereo not drawn)
inactive: dose: 10.0 mg/kg/injection, schedule: Q01DX Z (ip), vehicle: saline 95 % of control | dose: 30.0 mg/kg/injection, schedule: Q01DX Z (ip), vehicle: saline 95 % of control | [9] 90 % of control | dose: 100.0 mg/kg/injection, schedule: Q01DX Z (ip), vehicle: saline 95 % of control | [10] 103 % of control

O=C(COc1ccc(Cl)cc1Cl)Nc1ccc2ccccc2c1
inactive: dose: 100.0 mg/kg/injection, schedule: Q04DX002 (ip), vehicle: saline 95 % of control and 96 % of control | dose: 200.0 mg/kg/injection, schedule: Q04DX002 (ip), vehicle: saline 103 % of control | dose: 400.0 mg/kg/injection, schedule: Q04DX002 (ip), vehicle: saline 107 % of control and 92 % of control

OCCC1COc2ccccc2O1 (stereo not drawn)
inactive: [6] 97 % of control | [7] 95 % of control | [8] 103 % of control

COC(=O)C1CC23C=CCN4CC(C2C)C2(c5ccccc5NC12)C43 (stereo not drawn)
inactive: dose: 0.03 mg/kg/injection, schedule: Q01DX001 (ip), vehicle: saline 101 % of control | dose: 0.06 mg/kg/injection, schedule: Q01DX001 (ip), vehicle: saline 98 % of control | dose: 0.13 mg/kg/injection, schedule: Q01DX001 (ip), vehicle: saline 93 % of control | dose: 0.25 mg/kg/injection, schedule: Q01DX001 (ip), vehicle: saline 101 % of control | dose: 0.5 mg/kg/injection, schedule: Q01DX001 (ip), vehicle: saline 97 % of control | dose: 1.0 mg/kg/injection, schedule: Q01DX001 (ip), vehicle: saline 97 % of control | dose: 2.0 mg/kg/injection, schedule: Q01DX001 (ip), vehicle: saline 98 % of control | dose: 25.0 mg/kg/injection, schedule: Q01DX001 (ip), vehicle: saline 101 % of control | dose: 50.0 mg/kg/injection, schedule: Q01DX001 (ip), vehicle: saline 95 % of control | [9] 101 % of control

C1=CN2CC(c3ccccc3)=NNC2c2ccccc21 (stereo not drawn)
inactive: dose: 100.0 mg/kg/injection, schedule: Q04DX003 (ip), vehicle: alcohol 107 % of control | dose: 100.0 mg/kg/injection, schedule: Q04DX003 (ip), vehicle: saline 97 % of control | dose: 200.0 mg/kg/injection, schedule: Q04DX003 (ip), vehicle: saline 97 % of control

C[n+]1ccsc1
inactive: [3] 104 % of control | [4] 103 % of control | [5] 97 % of control

CP1(=O)CCC=C1C(=O)O (stereo not drawn)
inactive: [9] 95 % of control | [10] 95 % of control | dose: 400.0 mg/kg/injection, schedule: Q01DX001 (ip), vehicle: saline 95 % of control

CC(=N)c1ccc(C)cc1
inactive: dose: 6.25 mg/kg/injection, schedule: Q01DX009 (ip), vehicle: saline with Tween-80 94 % of control | dose: 12.5 mg/kg/injection, schedule: Q01DX009 (ip), vehicle: saline with Tween-80 96 % of control | [11] 102 % of control

O=C(CCl)COP(=O)(O)O
inactive: dose: 6.25 mg/kg/injection, schedule: Q01DX009 (ip), vehicle: other 102 % of control | dose: 12.5 mg/kg/injection, schedule: Q01DX001 (ip), vehicle: other 102 % of control | dose: 12.5 mg/kg/injection, schedule: Q01DX009 (ip), vehicle: other 91 % of control | dose: 12.5 mg/kg/injection, schedule: Q04DX003 (ip), vehicle: other 91 % of control | dose: 25.0 mg/kg/injection, schedule: Q01DX001 (ip), vehicle: other 91 % of control | dose: 25.0 mg/kg/injection, schedule: Q01DX009 (ip), vehicle: other 101 % of control | dose: 25.0 mg/kg/injection, schedule: Q04DX003 (ip), vehicle: other 88 % of control | dose: 50.0 mg/kg/injection, schedule: Q01DX001 (ip), vehicle: other 96 % of control | dose: 50.0 mg/kg/injection, schedule: Q01DX009 (ip), vehicle: other 114 % of control | dose: 50.0 mg/kg/injection, schedule: Q04DX003 (ip), vehicle: other 93 % of control | dose: 100.0 mg/kg/injection, schedule: Q01DX001 (ip), vehicle: other 89 % of control | dose: 100.0 mg/kg/injection, schedule: Q04DX003 (ip), vehicle: other 106 % of control

CCOCCOCCOC(C)Oc1ccc(Cl)cc1Cl (stereo not drawn)
inactive: dose: 100.0 mg/kg/injection, schedule: Q04DX002 (ip), vehicle: saline with Tween-80 97 % of control | dose: 200.0 mg/kg/injection, schedule: Q04DX002 (ip), vehicle: saline with Tween-80 94 % of control | dose: 400.0 mg/kg/injection, schedule: Q04DX002 (ip), vehicle: saline with Tween-80 100 % of control

Cc1ccc(C)c(C(=O)CCC(=O)O)c1
inactive: [11] 100 % of control | dose: 50.0 mg/kg/injection, schedule: Q01DX009 (ip), vehicle: saline with Tween-80 96 % of control | dose: 100.0 mg/kg/injection, schedule: Q01DX009 (ip), vehicle: saline with Tween-80 105 % of control | dose: 100.0 mg/kg/injection, schedule: Q01DX009 (ip), vehicle: saline 95 % of control | [3] 91 % of control | dose: 200.0 mg/kg/injection, schedule: Q01DX009 (ip), vehicle: saline with Tween-80 94 % of control | dose: 200.0 mg/kg/injection, schedule: Q01DX009 (ip), vehicle: saline 95 % of control | [4] 92 % of control | dose: 400.0 mg/kg/injection, schedule: Q01DX009 (ip), vehicle: saline 95 % of control | [5] 97 % of control

CCCCCCCCCCOC(=O)C[n+]1cccc(C(N)=O)c1
inactive: dose: 12.5 mg/kg/injection, schedule: Q04DX003 (ip), vehicle: saline 96 % of control | dose: 25.0 mg/kg/injection, schedule: Q04DX003 (ip), vehicle: saline 102 % of control | dose: 50.0 mg/kg/injection, schedule: Q04DX003 (ip), vehicle: saline 93 % of control
